Test [1] has as its system hIL-6 mRNA. As to the kind of experiment: Inhibition of hIL-6 mRNA transcription in LPS-stimulated U937 macrophages. Type of test: cell-based, human. Conditions: U937 differentiated into macrophages, 1 h pretreatment, lipopolysaccharide 3 h. Details: key: Active: Compounds with an IC50 value less than 30 μM are deemed to be active. Put shortly: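 U937 cells differentiated 3 days with 60 ng/mL PMA, pretreated 1 h with compound, then stimulated with […] E. coli LPS for 3 h at 37° C. hIL-6 mRNA quantified by one-step real-time RT-PCR, Ct normalised to internal control and expressed as fold induction relative to control.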

The target in test [2] is T1, Brd4 bromodomain 1 (Homo sapiens, UniProt O60885).
T1 construct: made in house; host or cells: E. coli BL21(DE3)
As to the kind of experiment: Inhibition of tetra-acetylated histone H4 binding to BET bromodomains (TR-FRET). Conditions: first bromodomain of Brd4, tetra-acetylated histone H4 peptide. Also on record: key: Active: Compounds with an IC50 value less than 30 μM were deemed to be active.; Not Active: Compounds with an IC50 value less than 30 μM were deemed to be active. In outline:
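TR-FRET with N-terminally His-tagged bromodomains (200 nM, E. coli-expressed, Ni affinity and SEC-purified) and biotinylated tetra-acetylated histone H4 peptide (25–50 nM), detected with Eu-cryptate streptavidin and XL665 anti-His antibody. Buffer 30 mM HEPES pH 7.4, 320 mM KF, 0.08% BSA, 0.2% DMSO; 2 h RT. IC50 from decrease in 665/620 nm ratio.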

From patent US9765039B2, “Biaryl derivatives as bromodomain inhibitors” (Zenith Epigenetics Ltd., priority 2012, dated 2017) come the findings set out here.

For `COc1cc(OC)c2c(=O)[nH]c(-c3ccc(OCCNC(C)C)c(-c4ccc([S+](C)[O-])cc4)n3)nc2c1` (centres unmarked) [Example 41, 2-(5-(2-(Isopropylamino)ethoxy)-6-(4-(methylsulfinyl)phenyl)pyridin-2-yl)-5,7-dimethoxyquinazolin-4(3H)-one], the “IL-6 activity (IC50 < 30 μM)” value in test [1] is given as “Active”. Also, in test [2], the “FRET activity (IC50 < 30 μM)” value is reported as “Active”.
